Test results: patent publication US9856252B2, “2-(hetero)aryl-benzimidazole and imidazopyridine derivatives as inhibitors of asparagime emethyl transferase” (Cancer Therapeutics CRC Pty Ltd, priority 2013, dated 2018)
Structures can show the parent of a compound that is named as a salt.

Molecular target: Full-length PRMT5 enzyme (NCBI Reference sequence NP_006100.2) co-expressed with His6-MEP50 (Homo sapiens (Human), UniProt O14744)
Assay: PRMT5 Biochemical Assay
Details: histone H4 derived peptide substrate 200 nM, 1 μM S-Adenosyl methionine, 4 hours at 37° C., Transcreener EPIGEN fluorescence polarisation
Procedure: Compounds of the invention may be tested for in vitro activity in the following assay: A histone H4 derived peptide is used as substrate (amino acid sequence: […]N H2). Full-length PRMT5 enzyme (NCBI Reference sequence NP_006100.2) was co-expressed with His6-MEP50 in insect cells and purified via Nickel immobilized metal affinity and gel filtration chromatography (“the enzyme”).
The 6 μL assay reactions are run in Greiner brand black 384-well low volume plates. All reactions contained assay buffer (phosphate buffered saline, 0.01% (v/v) Tween-20, 0.01% (w/v) albumin from chicken egg white, 1 mM dithiothreitol, 200 nM peptide substrate, 1 μM S-Adenosyl methionine, and 15 ng/reaction enzyme, with the enzyme being omitted from negative control reactions. Compounds were added in a volume of 100 nL from dilution series prepared in DMSO, positive and negative control reactions receiving the same volume DMSO without compound. The plates were sealed with adhesive seals and incubated for 4 hours at 37° C. Reaction progress was measured using the Transcreener™ EPIGEN methyltransferase assay (BellBrook Labs, Madison, Wis.) as recommended by the manufacturer. To each reaction 2 μL detection mix were added, containing coupling enzymes, fluorescence polarisation tracer, and AMP antibody. Plates were incubated for 90 minutes before being read on a PerkinElmer EnVision™ plate reader in fluorescence polarisation mode.

Full-length PRMT5 enzyme (NCBI Reference sequence NP_006100.2) co-expressed with His6-MEP50, sequence (O14744 whole entry): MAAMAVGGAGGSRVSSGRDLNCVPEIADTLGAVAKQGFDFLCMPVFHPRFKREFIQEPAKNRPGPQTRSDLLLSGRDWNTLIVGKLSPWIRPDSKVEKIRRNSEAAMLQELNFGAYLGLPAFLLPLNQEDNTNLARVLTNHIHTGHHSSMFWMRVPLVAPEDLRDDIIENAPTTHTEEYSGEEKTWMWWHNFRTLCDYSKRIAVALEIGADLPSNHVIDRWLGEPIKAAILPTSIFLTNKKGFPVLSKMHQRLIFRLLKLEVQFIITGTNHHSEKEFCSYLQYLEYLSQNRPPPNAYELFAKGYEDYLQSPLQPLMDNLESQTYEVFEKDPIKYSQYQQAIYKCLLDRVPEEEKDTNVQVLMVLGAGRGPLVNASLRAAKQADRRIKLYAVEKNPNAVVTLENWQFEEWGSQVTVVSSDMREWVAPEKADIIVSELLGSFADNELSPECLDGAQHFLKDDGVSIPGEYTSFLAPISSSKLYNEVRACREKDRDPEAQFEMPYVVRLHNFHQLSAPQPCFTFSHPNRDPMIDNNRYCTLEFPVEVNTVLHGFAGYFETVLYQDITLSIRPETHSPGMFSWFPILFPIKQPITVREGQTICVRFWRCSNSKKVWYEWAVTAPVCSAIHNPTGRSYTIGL
Full-length PRMT5 enzyme (NCBI Reference sequence NP_006100.2) co-expressed with His6-MEP50, sequence (Q9BQA1 whole entry partner): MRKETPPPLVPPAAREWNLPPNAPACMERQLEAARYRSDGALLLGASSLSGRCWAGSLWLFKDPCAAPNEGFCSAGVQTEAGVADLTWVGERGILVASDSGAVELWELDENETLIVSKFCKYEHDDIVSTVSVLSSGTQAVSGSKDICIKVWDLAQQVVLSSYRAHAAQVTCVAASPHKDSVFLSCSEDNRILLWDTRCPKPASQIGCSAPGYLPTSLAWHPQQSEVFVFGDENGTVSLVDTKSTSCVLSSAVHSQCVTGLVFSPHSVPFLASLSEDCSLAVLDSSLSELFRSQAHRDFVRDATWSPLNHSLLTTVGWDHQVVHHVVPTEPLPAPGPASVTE

| SMILES | IC50 |
| --- | --- |
| Cn1cc(-c2ccc3nc(-c4ccc(OCc5ccccc5)cc4)[nH]c3n2)cn1 [Example 107] | 1670 nM |
| CCS(=O)(=O)N1CCN(c2ccc3nc(-c4ccc(OCc5ccccc5)c(C)c4)[nH]c3n2)CC1 [Example 74, 2-(4-(benzyloxy)-3-methylphenyl)-5-(4-(ethylsulfonyl)piperazin-1-yl)-3H-imidazo[4,5-b]pyridine] | 1360 nM |
| O=S(=O)(C1CC1)N1CCN(c2ccc3nc(-c4ccc(OCc5ccccc5)cc4)[nH]c3n2)CC1 [Example 92, 2-(4-(benzyloxy)phenyl)-5-(4-(cyclopropylsulfonyl)piperazin-1-yl)-3H-imidazo[4,5-b]pyridine] | 279 nM |
| c1ccc(COc2ccc(-c3nc4ccc(C5CC5)nc4[nH]3)cc2)cc1 [Example 105] | 1500 nM |
| c1ccc(CSc2ccc(-c3nc4ccc(N5CCNCC5)nc4[nH]3)cc2)cc1 [Example 96, 2-(4-(benzylthio)phenyl)-5-(piperazin-1-yl)-3H-imidazo[4,5-b]pyridine] | 585 nM |
| O=C(O)c1cc(-c2nc3cc(C4CCNCC4)cnc3[nH]2)ccc1OCc1ccccc1 [Example 67, 2-(benzyloxy)-5-(6-(piperidin-4-yl)-3H-imidazo[4,5-b]pyridin-2-yl)benzoic acid dihydrochloride salt] | 3720 nM |
| CC(=O)N1CC=C(c2ccc3nc(-c4ccc(OCc5ccccc5)cc4)[nH]c3n2)CC1 [Example 98, 1-(4-(2-(4-(benzyloxy)phenyl)-3H-imidazo[4,5-b]pyridin-5-yl)-3,6-dihydropyridin-1 (2H)-yl)ethan-1-one] | 166 nM |
| CCS(=O)(=O)N1CCN(c2ccc3nc(-c4ccc(OCc5ccccc5)c(-c5cnn(C)c5)c4)[nH]c3n2)CC1 [Example 69, 2-(4-(benzyloxy)-3-(1-methyl-1H-pyrazol-4-yl)phenyl)-5-(4-(ethylsulfonyl)piperazin-1-yl)-3H-imidazo[4,5-b]pyridine] | 447 nM |
| CCS(=O)(=O)N1CCC(c2ccc3nc(-c4ccc(OCc5ccccc5)cc4)[nH]c3n2)CC1 [Example 90, 2-(4-(benzyloxy)phenyl)-5-(1-(ethylsulfonyl)piperidin-4-yl)-3H-imidazo[4,5-b]pyridine] | 148 nM |
| O=C(Nc1ccc(-c2nc3cccnc3[nH]2)cc1)c1ccccc1 [Example 3, N-(4-(3H-imidazo[4,5-b]pyridin-2-yl)phenyl)benzamide] | 3970 nM |
| COC(=O)c1cc(-c2nc3cc(C4CCNCC4)cnc3[nH]2)ccc1OCc1ccccc1 [Example 66, methyl 2-(benzyloxy)-5-(6-(piperidin-4-yl)-3H-imidazo[4,5-b]pyridin-2-yl)benzoate dihydrogen chloride salt] | 608 nM |
| NC1CCN(c2ccc3nc(-c4ccc(OCc5ccccc5)cc4)[nH]c3n2)CC1 [Example 54] | 583 nM |
| CC(=O)NCCNc1ccc2nc(-c3ccc(OCc4ccccc4)cc3)[nH]c2n1 [Example 22, N-(2-((2-(4-(benzyloxy)phenyl)-3H-imidazo[4,5-b]pyridin-5-yl)amino)ethyl)acetamide] | 487 nM |
| c1ccc(OCc2ccc(-c3nc4ccc(C5CCCNC5)nc4[nH]3)cc2)cc1 (centres unmarked) [Example 35, 2-(4-(phenoxymethyl)phenyl)-5-(piperidin-3-yl)-3H-imidazo[4,5-b]pyridine] | 204 nM |
| c1ccc(COc2ccc(-c3nc4ccc(N5CCNCC5)nc4[nH]3)cc2)cc1 [Example 47, 2-(4-(benzyloxy)phenyl)-5-(piperazin-1-yl)-3H-imidazo[4,5-b]pyridine] | 197 nM |
| CCS(=O)(=O)N1CCN(c2ccc3nc(-c4ccc(OCc5ccccc5)c(-c5cccnc5)c4)[nH]c3n2)CC1 [Example 71] | 542 nM |
| Cn1cc(-c2cc(-c3nc4cc(C5CCNCC5)cnc4[nH]3)ccc2OCc2ccccc2)cn1 [Example 63, 2-(4-(benzyloxy)-3-(1-methyl-1H-pyrazol-4-yl)phenyl)-6-(piperidin-4-yl)-3H-imidazo[4,5-b]pyridine] | 215 nM |
| CC(C)(C)OC(=O)N1CCC(Nc2ccc3nc(-c4ccc(OCc5ccccc5)cc4)[nH]c3n2)CC1 [Example 32, tert-butyl 4-((2-(4-(benzyloxy)phenyl)-3H-imidazo[4,5-b]pyridin-5-yl)amino)piperidine-1-carboxylate] | 827 nM |
| CCS(=O)(=O)N1CCN(c2ccc3nc(-c4ccc(OCc5ccccc5)c(OC)c4)[nH]c3n2)CC1 [Example 75, 2-(4-(benzyloxy)-3-methoxyphenyl)-5-(4-(ethylsulfonyl)piperazin-1-yl)-3H-imidazo[4,5-b]pyridine] | 306 nM |
| CS(=O)(=O)N1CCN(c2ccc3nc(-c4ccc(OCc5ccccc5)cc4)[nH]c3n2)CC1 [Example 91, 2-(4-(benzyloxy)phenyl)-5-(4-(methylsulfonyl)piperazin-1-yl)-3H-imidazo[4,5-b]pyridine] | 820 nM |
| FC(F)(F)c1ccc(COc2ccc(-c3nc4ccc(N5CCNCC5)nc4[nH]3)cc2)cc1 [Example 56] | 1860 nM |

| SMILES | IC50 |
| --- | --- |
| CC(=O)N1CCC(c2cnc3[nH]c(-c4ccc(COc5ccccc5)cc4)nc3c2)CC1 [Example 10, 1-(4-(2-(4-(phenoxymethyl)phenyl)-3H-imidazo[4,5-b]pyridin-6-yl)piperidin-1-yl)ethanone] | 375 nM |
| Fc1ccccc1COc1ccc(-c2nc3ccc(N4CCNCC4)nc3[nH]2)cc1 [Example 57] | 981 nM |
| Cn1ccc(-c2ccc3nc(-c4ccc(COc5ccccc5)cc4)[nH]c3n2)n1 [Example 38, 5-(1-methyl-1H-pyrazol-3-yl)-2-(4-(phenoxymethyl)phenyl)-3H-imidazo[4,5-b]pyridine] | 2390 nM |
| CC(C)(C)OC(=O)N1CCC(CNc2ccc3nc(-c4ccc(OCc5ccccc5)cc4)[nH]c3n2)CC1 [Example 31, tert-butyl 4-(((2-(4-(benzyloxy)phenyl)-3H-imidazo[4,5-b]pyridin-5-yl)amino)methyl)piperidine-1-carboxylate] | 1240 nM |
| CN1CCC(c2ccc3nc(-c4ccc(COc5ccccc5)cc4)[nH]c3n2)CC1 [Example 86, 5-(1-methylpiperidin-4-yl)-2-(4-(phenoxymethyl)phenyl)-3H-imidazo[4,5-b]pyridine] | 151 nM |
| c1ccc(COc2ccc(-c3nc4ccc(NCC5CCNCC5)nc4[nH]3)cc2)cc1 [Example 52] | 935 nM |
| [O-][S+]1CCN(c2ccc3nc(-c4ccc(OCc5ccccc5)cc4)[nH]c3n2)CC1 [Example 24, 4-(2-(4-(benzyloxy)phenyl)-3H-imidazo[4,5-b]pyridin-5-yl)thiomorpholine 1-oxide] | 570 nM |
| Fc1cccc(COc2ccc(-c3nc4ccc(N5CCNCC5)nc4[nH]3)cc2)c1 [Example 58] | 333 nM |
| CN1CCN(c2ccc3nc(-c4ccc(OCc5ccccc5)cc4)[nH]c3n2)CC1 [Example 26, 2-(4-(benzyloxy)phenyl)-5-(4-methylpiperazin-1-yl)-3H-imidazo[4,5-b]pyridine] | 132 nM |
| CN1CCC(c2cnc3[nH]c(-c4ccc(COc5ccccc5)cc4)nc3c2)CC1 [Example 11, 6-(1-methylpiperidin-4-yl)-2-(4-(phenoxymethyl)phenyl)-3H-imidazo[4,5-b]pyridine] | 482 nM |
| c1ccc(COc2ccc(-c3nc4ccc(N5CCSCC5)nc4[nH]3)cc2)cc1 [Example 23, 4-(2-(4-(benzyloxy)phenyl)-3H-imidazo[4,5-b]pyridin-5-yl)thiomorpholine] | 497 nM |
| NCC1CCN(c2ccc3nc(-c4ccc(OCc5ccccc5)cc4)[nH]c3n2)CC1 [Example 55] | 426 nM |
| CCS(=O)(=O)N1CC=C(c2ccc3nc(-c4ccc(OCc5ccccc5)cc4)[nH]c3n2)CC1 [Example 97, 2-(4-(benzyloxy)phenyl)-5-(1-(ethylsulfonyl)-1,2,3,6-tetrahydropyridin-4-yl)-3H-imidazo[4,5-b]pyridine] | 217 nM |
| CCS(=O)(=O)N1CCN(c2ccc3nc(-c4ccc(OCc5ccccc5)cc4)[nH]c3n2)CC1 [Example 27, 2-(4-(benzyloxy)phenyl)-5-(4-(ethylsulfonyl)piperazin-1-yl)-3H-imidazo[4,5-b]pyridine] | 148 nM |
| c1ccc(COc2ccc(-c3nc4ccc(NCC5CCCCN5)nc4[nH]3)cc2)cc1 (centres unmarked) [Example 51] | 547 nM |
| c1ccc(COc2ccc(-c3nc4ccc(-c5cncnc5)nc4[nH]3)cc2)cc1 [Example 106] | 9000 nM |
| CC(C)(C)OC(=O)NCC1CCCN(c2ccc3nc(-c4ccc(OCc5ccccc5)cc4)[nH]c3n2)C1 (centres unmarked) [Example 28, tert-butyl ((1-(2-(4-(benzyloxy)phenyl)-3H-imidazo[4,5-b]pyridin-5-yl)piperidin-3-yl)methyl)carbamate] | 1680 nM |
| CCOC(=O)N1CCC(c2ccc3nc(-c4ccc(OCc5ccccc5)cc4)[nH]c3n2)CC1 [Example 88, ethyl 4-(2-(4-(benzyloxy)phenyl)-3H-imidazo[4,5-b]pyridin-5-yl)piperidine-1-carboxylate] | 477 nM |
| c1ccc(OCc2ccc(-c3nc4cccnc4[nH]3)cc2)cc1 [Example 1, 2-(4-(phenoxymethyl)phenyl)-3H-imidazo[4,5-b]pyridine] | 1490 nM |
| c1ccc(COc2ccc(-c3nc4ccc(Nc5cn[nH]c5)nc4[nH]3)cc2)cc1 [Example 20, 2-(4-(benzyloxy)phenyl)-N-(1H-pyrazol-4-yl)-3H-imidazo[4,5-b]pyridin-5-amine] | 847 nM |
